Results taken from paper PMC11200585, “Prospects for Prostate Cancer Chemotherapy: Cytotoxic Evaluation and Mechanistic Insights of Quinolinequinones with ADME/PK Profile” (Biomedicines, 2024).

Assays:
Assay type in all cases: cell-based, human
SNB-75 = assay: NCI-60 five-dose assay (CNS cancer); settings: 48 h, SRB
HCT-15 = assay: NCI-60 five-dose assay (colon cancer); settings: 48 h, SRB
BT-549 = assay: NCI-60 five-dose assay (breast cancer); settings: 48 h, SRB
IGROV1 [1] = assay: NCI-60 five-dose assay (ovarian cancer); settings: SRB
UO-31 = assay: NCI-60 five-dose assay (renal cancer); settings: 48 h, SRB
SK-MEL-5 [2] = assay: NCI-60 five-dose assay (melanoma); settings: 48 h, SRB
SNB-19 = assay: NCI-60 five-dose assay (CNS cancer); settings: 48 h, SRB
KM12 = assay: NCI-60 five-dose assay (colon cancer); settings: 48 h, SRB
PC-3 = assay: NCI-60 five-dose assay (prostate cancer); settings: 48 h, SRB
SF-268 = assay: NCI-60 five-dose assay (CNS cancer); settings: 48 h, SRB
OVCAR-8 [3] = assay: NCI-60 five-dose assay (ovarian cancer); settings: 48 h, SRB
HOP-92 = assay: NCI-60 five-dose assay (non-small cell lung cancer); settings: 48 h, SRB
UACC-62 = assay: NCI-60 one-dose screen (melanoma); settings: 10 µM single dose, 48 h
Description: (§1) The obtained quinolinequinones were submitted to NCI, Bethesda, USA, and, as per standard protocol of NCI, all compounds were evaluated for their antiproliferative activity at single-dose assay (10 µM concentration in DMSO) on a panel of 60 cancer cell lines derived from leukemia, non-small-cell lung, colon, CNS, melanoma, ovarian, renal, prostate, and breast, as per protocol. Tested compounds were added to the microtiter culture plates followed by incubation for 48 h at 37 °C. Sulforhodamine B (SRB), a protein-binding dye, is used for endpoint determination. The percent of the growth of the treated cells was determined in comparison to the untreated control cells and the results of each tested compound were reported. Data from one-dose experiments pertain to the percentage growth at 10 μM [16, 17, 18].

UACC-257 [4] = assay: NCI-60 one-dose screen (melanoma); settings: 10 µM single dose, 48 h
Description: as §1

MALME-3M = assay: NCI-60 one-dose screen (melanoma); settings: 10 µM single dose, 48 h
Description: as §1

LOX IMVI = assay: NCI-60 one-dose screen (melanoma); settings: 10 µM single dose, 48 h
Description: as §1

MDA-MB-435 = assay: NCI-60 one-dose screen (melanoma); settings: 10 µM single dose, 48 h
Description: as §1

SK-MEL-28 = assay: NCI-60 one-dose screen (melanoma); settings: 10 µM single dose
Description: as §1

SK-MEL-2 = assay: NCI-60 one-dose screen (melanoma); settings: 10 µM single dose, 48 h
Description: as §1

SK-MEL-5 [5] = assay: NCI-60 one-dose screen (melanoma); settings: 10 µM single dose, 48 h
Description: as §1

OVCAR-4 = assay: NCI-60 one-dose screen (ovarian cancer); settings: 10 µM single dose, 48 h
Description: as §1

IGROV1 [6] = assay: NCI-60 one-dose screen (ovarian cancer); settings: 10 µM single dose, 48 h
Description: as §1

OVCAR-8 [7] = assay: NCI-60 one-dose screen (ovarian cancer); settings: 10 µM single dose
Description: as §1

NCI/ADR-RES = assay: NCI-60 one-dose screen (ovarian cancer); settings: 10 µM single dose, 48 h
Description: as §1

OVCAR-5 = assay: NCI-60 one-dose screen (ovarian cancer); settings: 10 µM single dose, 48 h
Description: as §1

SK-OV-3 = assay: NCI-60 one-dose screen (ovarian cancer); settings: 10 µM single dose, 48 h
Description: as §1

HT29 = assay: NCI-60 five-dose assay (colon cancer); settings: SRB
UACC-257 [8] = assay: NCI-60 five-dose assay (melanoma); settings: 48 h, SRB
HS 578T = assay: NCI-60 five-dose assay (breast cancer); settings: 48 h, SRB
SF-295 = assay: NCI-60 five-dose assay (CNS cancer); settings: 48 h, SRB
CAKI-1 = assay: NCI-60 five-dose assay (renal cancer); settings: 48 h, SRB
MDA-MB-468 = assay: NCI-60 five-dose assay (breast cancer); settings: 48 h, SRB
RPMI-8226 = assay: NCI-60 five-dose assay (leukemia); settings: 48 h, SRB
TK-10 = assay: NCI-60 five-dose assay (renal cancer); settings: 48 h, SRB
RXF 393 = assay: NCI-60 five-dose assay (renal cancer); settings: 48 h, SRB
U251 = assay: NCI-60 five-dose assay (CNS cancer); settings: SRB
[9] = Homo sapiens, read-out: LC50 (the source's name)

`CCOc1ccccc1NC1=C(Cl)C(=O)c2nc(C)ccc2C1=O` [AQQ2] showed a TGI (SNB-75) of 3.43 µM, a GI50 (SNB-75; Homo sapiens) of 1.63 µM and an LC50 (50% lethal concentration) (SNB-75; Homo sapiens) of 7.21 µM. It also gave a TGI (HCT-15) of 2.55 µM, a GI50 (HCT-15; Homo sapiens) of 1.13 µM and a CC50 (HCT-15; [9]) of 5.76 µM. It also gave a TGI (BT-549) of 2.88 µM, a GI50 (BT-549; Homo sapiens) of 1.52 µM and an LC50 (concentration giving 50% net cell kill) (BT-549; Homo sapiens) of 5.46 µM. For the same compound, the TGI (IGROV1 [1]; 48 h) was 2.82 µM, the GI50 (IGROV1 [1]; Homo sapiens, IGROV-1, 48 h) was 1.37 µM and the LC50 (IGROV1 [1]; Homo sapiens, IGROV-1, 48 h) was 5.84 µM. The TGI (UO-31) was 2.71 µM, the GI50 (UO-31; Homo sapiens) was 1.4 µM and the LC50 (lethal concentration 50%) (UO-31; Homo sapiens) was 5.23 µM. The TGI (SK-MEL-5 [2]) was 3.13 µM, the GI50 (SK-MEL-5 [2]; Homo sapiens) was 1.74 µM and the CC50 (SK-MEL-5 [2]; [9]) was 5.65 µM. For the same compound, the TGI (SNB-19) was 3.97 µM, the GI50 (SNB-19; Homo sapiens) was 1.8 µM and the CC50 (SNB-19; [9]) was 8.73 µM. For the same compound, the TGI (KM12) was 2.89 µM, the GI50 (KM12; Homo sapiens) was 1.41 µM and the CC50 (KM12; [9]) was 5.92 µM. It also gave a TGI (PC-3) of 2.77 µM, a GI50 (PC-3; Homo sapiens) of 1.26 µM and a CC50 (PC-3; [9]) of 6.11 µM. The TGI (SF-268) was 2.94 µM, the GI50 (SF-268; Homo sapiens) was 1.47 µM and the LC50 (concentration killing 50% of cells) (SF-268; Homo sapiens) was 5.87 µM. It also gave a TGI (OVCAR-8 [3]) of 2.92 µM, a GI50 (OVCAR-8 [3]; Homo sapiens) of 1.49 µM and a CC50 (OVCAR-8 [3]; [9]) of 5.7 µM. It also gave a TGI (HOP-92) of 3.33 µM, a GI50 (HOP-92; Homo sapiens) of 1.8 µM and an LC50 (50% lethal concentration) (HOP-92; Homo sapiens) of 6.13 µM. The “GP (growth percentage)” value (UACC-62) was −29.14%, the “GP (growth percentage)” value (UACC-257 [4]) was −88.33% and the “GP (growth percentage)” value (MALME-3M) was −71.39%. For the same compound, the “GP (growth percentage)” value (LOX IMVI) was −82.20%, the “GP (growth percentage)” value (MDA-MB-435) was −85.72% and the “GP (growth percentage)” value (SK-MEL-28; 48 h) was 14.55%. For the same compound, the inhibition at 10 µM (SK-MEL-28; Homo sapiens) was 85.5%, the “GP (growth percentage)” value (SK-MEL-2) was −15.72% and the “GP (growth percentage)” value (SK-MEL-5 [5]) was −97.76%. For the same compound, the “GP (growth percentage)” value (OVCAR-4) was −91.97%, the “GP (growth percentage)” value (IGROV1 [6]) was −57.52% and the “GP (growth percentage)” value (OVCAR-8 [7]; 48 h) was 0.93%. The inhibition at 10 µM (OVCAR-8 [7]; Homo sapiens) was 99.1%, the “GP (growth percentage)” value (NCI/ADR-RES) was −9.58% and the “GP (growth percentage)” value (OVCAR-5) was 40.78%. For the same compound, the “GP (growth percentage)” value (SK-OV-3) was 85.34%, the TGI (HT29; 48 h) was 15.2 µM and the GI50 (HT29; Homo sapiens, HT-29, 48 h) was 3.4 µM. For the same compound, the LC50 (concentration killing 50% of cells) (HT29; Homo sapiens, HT-29, 48 h) was 99.5 µM, the TGI (UACC-257 [8]) was 2.61 µM and the GI50 (UACC-257 [8]; Homo sapiens) was 1.28 µM. The LC50 (NCI-60 lethal concentration, 50% cell kill) (UACC-257 [8]; Homo sapiens) was 5.34 µM, the TGI (HS 578T) was 5.25 µM and the GI50 (HS 578T; Homo sapiens) was 2.11 µM. For the same compound, the CC50 (HS 578T; [9]) was greater than 100 µM, the TGI (SF-295) was 4.20 µM and the GI50 (SF-295; Homo sapiens) was 2.03 µM. The LC50 (50% lethal concentration) (SF-295; Homo sapiens) was 8.7 µM, the TGI (CAKI-1) was 2.84 µM and the GI50 (CAKI-1; Homo sapiens) was 1.45 µM. The LC50 (lethal concentration, 50% net cell kill) (CAKI-1; Homo sapiens) was 5.57 µM, the TGI (MDA-MB-468) was 2.88 µM and the GI50 (MDA-MB-468; Homo sapiens) was 1.45 µM. The LC50 (MDA-MB-468; Homo sapiens) was 5.71 µM, the TGI (RPMI-8226) was 4.71 µM and the GI50 (RPMI-8226; Homo sapiens) was 1.2 µM. The CC50 (RPMI-8226; [9]) was greater than 100 µM, the TGI (TK-10) was 3.72 µM and the GI50 (TK-10; Homo sapiens) was 2.25 µM. The LC50 (concentration killing 50% of starting cells) (TK-10; Homo sapiens) was 6.18 µM, the TGI (RXF 393) was 2.78 µM and the GI50 (RXF 393; Homo sapiens) was 1.44 µM. For the same compound, the LC50 (RXF 393; Homo sapiens) was 5.39 µM, the TGI (U251; 48 h) was 3.27 µM and the GI50 (U251; Homo sapiens, U-251, 48 h) was 1.7 µM. For the same compound, the LC50 (concentration killing 50% of cells) (U251; Homo sapiens, U-251, 48 h) was 6.28 µM.
